Patent US6506801B1, “Methods of treating anosmia and repopulating olfactory nerves with retinoids” (Monell Chemical Senses Center, priority 2000, dated 2003)

Tests used:
[1] = test system: olfactory nerve recovery after bilateral olfactory nerve transection; test: Buried food task after bilateral olfactory nerve transection (BNX)
complicated anosmia = details: Duncan et al. 1962; cited from earlier work

Row | Compound | initial rate of recovery versus BNX-oil ([1]; BNX mice, FIG. 1, food-finding times to post-surgical day 14) | treatment effect on mean food finding times across the recovery period ([1]; BNX mice, post-surgical days 3-14, two-factor repeated measures ANOVA, F(1,15)=5.85, p<0.05, treatment X day interaction p<0.005) | mean post-surgical day on which animals reached criterion for initial recovery (first day of three consecutive days of <180 seconds food-finding time) ([1]; BNX mice, single oral 75 mg/kg atRA in sesame oil one day after surgery, n=9, BNX-oil 10.75±1.28, p<0.05) [post-surgical day] | post-surgical days between which animals reached criterion for initial recovery ([1]; BNX mice, single oral 75 mg/kg atRA in sesame oil, n=9) | recovery time needed to return to pre-surgical level of performance (≦30 seconds) ([1]; BNX mice, single oral 75 mg/kg atRA, no difference from BNX-oil (9.25 days), p=0.761) [days] | food-finding performance of sham-operated animals after surgery ([1]; sham mice, single oral 75 mg/kg atRA, n=4, FIG. 1) | usefulness in treating anosmia associated with skull injuries and fractures with sheering of olfactory nerves (complicated anosmia)
1 | CC1=C(/C=C/C(C)=C/C=C/C(C)=C/C(=O)O)C(C)(C)CCC1 [RA, all-trans retinoic acid] | faster | significant treatment effect | 7.56±0.67 | 4-11 post-surgical days | 9.8 | performed at pre-surgical levels | 
2 | Vitamin A |  |  |  |  |  |  | not to be useful
